Measured values as given in US20180353512A1, “COMBINATION THERAPIES FOR TREATING B-CELL MALIGNANCIES” (GILEAD SCIENCES, INC., priority 2015, published 2018).

Columns and labels:
[1] = test system: TMD-8 cells with the BTK (C481F) mutation; experiment: 96-hour Cell Titer Glo viability assay, Ibrutinib-resistant TMD-8; design: Emax: dose or concentration left out as unconfirmed; settings: for sensitivity in cell viability assay: TMD8^BTK-C481F, 96 h
HBL-1 cells = experiment: ATPLite anti-proliferation assay (GI) and synergy score, 120 h; format: cell-based
Description: (§1) The endpoint readout of the anti-proliferation assay was based upon quantitation of ATP as an indicator of viable cells. Cells were thawed from a liquid nitrogen preserved state. Once cells had been expanded and divided at their expected doubling times, screening began. Cells were seeded in growth media in black 384-well tissue culture treated plates at 500 cells per well (except where noted in Analyzer). Cells were equilibrated in assay plates via centrifugation and placed in incubators attached to the Dosing Modules at 37° C. for twenty-four hours before treatment. […] These Tzero (T0) plates were read using ultra-sensitive luminescence on Envision Plate Readers. Treated assay plates were incubated with the compound for one hundred twenty hours. After one hundred twenty hours, plates were developed for endpoint analysis using ATPLite. All data points were collected via automated processes; quality controlled; and analyzed using Horizon CombinatoRx proprietary software. Assay plates were accepted if they pass the following quality control standards: relative luciferase values were consistent throughout the entire experiment, Z-factor scores were greater than 0.6, untreated/vehicle controls behaved consistently on the plate.
(§2) Horizon Discovery utilized Growth Inhibition (GI) as a measure of cell viability. The cell viability of vehicle was measured at the time of dosing (T0) and after one hundred twenty hours (T120). A GI reading of 0% represented no growth inhibition—cells treated with compound and T120 vehicle signals were matched. […] A GI 200% represents complete death of all cells in the culture well. Compounds reaching an activity plateau of GI 200% were considered cytotoxic. Horizon CombinatoRx calculates GI by applying the following test and equation: […]
(§3) To measure combination effects in excess of Loewe additivity, Horizon Discovery has devised a scalar measure to characterize the strength of synergistic interaction termed the Synergy Score. The Synergy Score was calculated as:
(§4) Synergy Score=log fx log fyΣmax(0,Idata)(Idata−ILoewe)
(§5) The fractional inhibition for each component agent and combination point in the matrix was calculated relative to the median of all vehicle-treated control wells. The Synergy Score equation integrated the experimentally-observed activity volume at each point in the matrix in excess of a model surface numerically derived from the activity of the component agents using the Loewe model for additivity. Additional terms in the Synergy Score equation (above) were used to normalize for various dilution factors used for individual agents and to allow for comparison of synergy scores across an entire experiment. The inclusion of positive inhibition gating or an Idata multiplier removed noise near the zero effect level, and biased results for synergistic interactions at that occur at high activity levels.
(§6) The cell viability of vehicle was measured at the time of dosing (T0) and after 120 h (T120). […] To measure combination effects, excess of Loewe additivity was used to characterize the strength of synergistic interaction, termed the synergy score. The assay and synergy score analysis were performed in accordance with the protocol set forth in Example 1B above.
(§7) The assay and synergy score analysis were performed in accordance with the protocol set forth in Example 3A above.

SU-DHL-6 cells = experiment: as above; format: cell-based
Description: as §1, §2, §3, §4, §5, §6, §7

OCI-Ly4 cells = experiment: as above; format: cell-based
Description: as §1, §2, §3, §4, §5, §6, §7

Carnaval cells = experiment: as above; format: cell-based
Description: as §1, §2, §3, §4, §5, §6, §7

Ri-1 cells = experiment: as above; format: cell-based
Description: as §1, §2, §3, §4, §5, §6, §7

U2973 cells = experiment: as above; format: cell-based
Description: as §1, §2, §3, §4, §5, §6, §7

Pfeiffer cells = experiment: as above; format: cell-based
Description: as §1, §2, §3, §4, §5, §6, §7

U2932 cells = experiment: as above; format: cell-based
Description: as §1, §2, §3, §4, §5, §6, §7

SU-DHL-2 cells = experiment: as above; format: cell-based
Description: as §1, §2, §3, §4, §5, §6, §7

SU-DHL-8 cells = experiment: as above; format: cell-based
Description: as §1, §2, §3, §4, §5, §6, §7

SU-DHL-10 cells = experiment: as above; format: cell-based
Description: as §1, §2, §3, §4, §5, §6, §7

TMD-8 cells = experiment: as above; format: cell-based
Description: as §1, §2, §3, §4, §5, §6, §7

OCI-Ly3 cells = experiment: as above; format: cell-based
Description: as §1, §2, §3, §4, §5, §6, §7

pBTK (Y223) = experiment: TMD-8 Western Blots; format: cell-based; settings: for pBTK (Y223), Western Blot: TMD-8
Description: (§8) Western Blot samples were prepared by lysing 10^6 cells for 30 minutes in 150 μL ice-cold lysis buffer. Protease Inhibitor Cocktail (Roche Diagnostics Corp), and phosphatase inhibitor sets 1 and 2 (EMD Millipore) were also added to the lysis buffer (Cell Signaling Technology). Cells were centrifuged at 12.5 g for 10 minutes at 4° C.; supernatant was collected and transferred to new tube. Sample buffer was added to each lysate, and then boiled at 99° C. for 5 minutes. Protein was loaded into an SDS-PAGE gel and run for 2 h at 125V. After electrophoresis, gel was transferred to Immobilon-F membrane using the X Cell Blot. The membrane was then blocked for 1 h at room temperature in blocking buffer and incubated overnight with primary antibodies diluted in a blocking buffer. The following day, the membranes were washed 3× (5 min each) with TBST; secondary antibodies were added and membrane was incubated for 45 minutes at room temperature, followed by 3×TBST (5 min each). Blots were read using Licor Imager. Primary antibodies included p-AKT (S473), p-BTK (Y223), BTK, p-ERK (T202/Y204), ERK, and actin (Cell Signaling Technologies), and secondary antibodies included IRDye-conjugated anti-mouse and anti-rabbit antibodies; LI-COR. Band intensity was measured using LI-COR imager and LI-COR Odyssey software.

pAKT (Ser 473) = experiment: TMD-8 Western Blots; format: cell-based; settings: for pAKT (Ser 473), Western Blot: TMD-8
Description: as §8

pErk1/2 (T202/Y204) = experiment: TMD-8 Western Blots; format: cell-based; settings: for pErk1/2 (T202/Y204), Western Blot: TMD-8
Description: as §8

[2] = Homo sapiens, TMD8, FIG. 2E, single agent, idelalisib 420 nM, Compound B 320 nM, time not stated, read-out: inhibition to p-AKT (S473)
[3] = Homo sapiens, TMD8, FIG. 2E, single agent, idelalisib 420 nM, Compound B 320 nM, time not stated, read-out: inhibition to p-ERK (T202/Y204)

Structure (SMILES) | sensitivity in cell viability assay [1] | Max. Effect (% GI) (HBL-1 cells) | Max. Effect (% GI) (SU-DHL-6 cells) | Max. Effect (% GI) (OCI-Ly4 cells) | Max. Effect (% GI) (Carnaval cells) | Max. Effect (% GI) (Ri-1 cells) | Max. Effect (% GI) (U2973 cells) | Max. Effect (% GI) (Pfeiffer cells) | Max. Effect (% GI) (U2932 cells) | Max. Effect (% GI) (SU-DHL-2 cells) | Max. Effect (% GI) (SU-DHL-8 cells) | Max. Effect (% GI) (SU-DHL-10 cells) | Max. Effect (% GI) (TMD-8 cells) | Max. Effect (% GI) (OCI-Ly3 cells) | pBTK (Y223), Western Blot (pBTK (Y223); 2 hr, DMSO 0.36) | pBTK (Y223), Western Blot (pBTK (Y223); 24 hr, DMSO 0.33) | pAKT (Ser 473), Western Blot (pAKT (Ser 473); 2 hr, DMSO 0.45) | pAKT (Ser 473), Western Blot (pAKT (Ser 473); 24 hr, DMSO 0.54) | pErk1/2 (T202/Y204), Western Blot (pErk1/2 (T202/Y204); 2 hr, DMSO 1.09) | pErk1/2 (T202/Y204), Western Blot (pErk1/2 (T202/Y204); 24 hr, DMSO 1.49) | other results
CC#CC(=O)N1CC[C@@H](n2c(=O)n(-c3ccc(Oc4ccccc4)cc3)c3c(N)ncnc32)C1 [Compound B, 6-amino-9-[(3R)-1-(2-butynoyl)-3-pyrrolidinyl]-7-(4-phenoxyphenyl)-7,9-dihydro-8H-purin-8-one] | resistant | 65 | 24 | 25 | 0 | 48 | 14 | 8 | 81 | 18 | 1 | 0 | 98 | 0 | 0.16 normalized integrated intensity | 0.14 normalized integrated intensity | 0.24 normalized integrated intensity | 0.35 normalized integrated intensity | 0.47 normalized integrated intensity | 0.93 normalized integrated intensity | inhibition at 0.32 µM (pBTK (Y223); Homo sapiens, TMD8, FIG. 2E, single agent, Compound B 320 nM, time not stated, read-out: inhibition of p-BTK (Y223)): 59%; inhibition at 0.32 µM (pAKT (Ser 473); [2]): 46%; inhibition at 0.32 µM (pErk1/2 (T202/Y204); [3]): 48%
CCC(Nc1ncnc2[nH]cnc12)c1nc2cccc(F)c2c(=O)n1-c1ccccc1 (stereo not shown) [Idelalisib, 2-(1-((9H-Purin-6-yl)amino)propyl)-5-fluoro-3-phenylquinazolin-4(3H)-one] | resistant | 29 | 110 | 194 | 62 | 78 | 85 | 33 | 61 | 8 | 43 | 0 | 155 | 20 | 0.39 normalized integrated intensity | 0.27 normalized integrated intensity | 0.19 normalized integrated intensity | 0.12 normalized integrated intensity | 0.40 normalized integrated intensity | 0.55 normalized integrated intensity | Emax ([1]; Homo sapiens, TMD8, read-out: Emax, growth inhibition): 14%; inhibition at 0.42 µM (pAKT (Ser 473); [2]): 58%; inhibition at 0.42 µM (pErk1/2 (T202/Y204); [3]): 71%
